Entries after “also recorded” stand apart in the source; their conditions may differ. No end group written: not given here.
Experiments:
neurospheres = assay: Multipotency of neurospheres (neuron, oligodendrocyte, astrocyte derived from each neurosphere); assay type: cell-based; settings: neurospheres produced in the factor(s)
Description: The protocols for neural stem cell culture are described in detail in U.S. Pat. No. 5,750,376 or Shingo et al., 2001. Briefly, embryonic neural stem cells were prepared from E14 medial and lateral ganglionic eminences. Adult neural stem cells were prepared from the subventricular zone of adult mice. The tissue was cultured in basal medium containing 20 ng/ml EGF, or other growth factors as indicated in each case, to form neurospheres. The composition of the basal medium is as follows: DMEM/F12 (1:1); glucose (0.6%); glutamine (2 mM); sodium bicarbonate (3 mM); HEPES (5 mM); insulin (25 μg/ml); transferrin (100 μg/ml); progesterone ([…]); putrescine (60 μM); and selenium chloride (30 nM).
Accordingly, we compared the expandability and multipotency of neurospheres that were produced in EGF alone or EGF plus CNTF. For expandability, pass 1 neurospheres were dissociated and replated at clonal density to generate pass 2 neurospheres, and the number of pass 2 neurospheres that were derived from a single pass 1 sphere was counted. […] Therefore, neural stem cells differentiate to glial cells by default, which can be inhibited by CNTF.

[1] = system: neural stem cells in the subventricular zone; assay: Subcutaneous administration, number of neural stem cells in the subventricular zone; assay type: in vivo
[2] = system: migrating neuronal progenitor cells; assay: Brain anatomical analysis (Cresyl Violet, Doublecortin) in focal ischemic injury (stroke) model; assay type: in vivo; settings: rats with focal ischemic injury, end of week 6
Source text: The animals for the stroke study received unilateral devascularization of the sensorimotor cortex. Using Isoflurane anesthesia, the skin was incised and retracted and the overlying fascia were removed from the skull. A skull opening was made at the following coordinates, taking care not to damage the dura: AP +4.0 to −2.0; L 1.5 to 4 (the parasagittal ridge; Kolb et al., 1997). The dura was cut and retracted from the skull opening. A cotton swab soaked in sterile saline was gently rubbed across the exposed pia and the vessels were removed. A hole was then drilled in the contralateral hemisphere to provide an opening for the cannulae attached to the osmotic minipump at AP −0.5; L 1.5. An osmotic minipump was placed under the skin between the shoulder blades and a tube connected under the skin to the cannulae, which was attached to the skull with fast-drying cement. Once hemostasis had been achieved the scalp was sutured closed with 5-O sterile suture. The animals were given a single injection of Banamine (an analgesic) and returned to their home cage. Sham animals received only anesthesia, the bone opening, and the skin was incised and sutured. […] The animals then received various test factors, and the effects of these factors on the forelimb inhibition test and brain anatomy were assessed. […]

[3] = Forelimb inhibition test in focal ischemic injury (stroke) model; assay type: in vivo; settings: rats with focal ischemic injury; first infusion days 1-7, second infusion days 8-14
Source text: (§1) Adult male Long-Evans rats (250-350 g) were obtained from Charles River Breeding Farms and were adapted to the colony for two weeks prior to any treatment. A week before surgery the rats were given a baseline testing on the behavioral tests.
The animals for the stroke study received unilateral devascularization of the sensorimotor cortex. Using Isoflurane anesthesia, the skin was incised and retracted and the overlying fascia were removed from the skull. A skull opening was made at the following coordinates, taking care not to damage the dura: AP +4.0 to −2.0; L 1.5 to 4 (the parasagittal ridge; Kolb et al., 1997). The dura was cut and retracted from the skull opening. A cotton swab soaked in sterile saline was gently rubbed across the exposed pia and the vessels were removed. A hole was then drilled in the contralateral hemisphere to provide an opening for the cannulae attached to the osmotic minipump at AP −0.5; L 1.5. […]
(§2) Six days later the animals were assessed using the behavioral test. […]
In normal rats, swimming is accomplished by propulsion from the hind limbs. […] Inhibition of the forelimbs was assessed by filming animals while swimming. […]
(§3) The animals then received various test factors, and the effects of these factors on the forelimb inhibition test and brain anatomy were assessed. […]

[4] = Forelimb asymmetry test in focal ischemic injury (stroke) model; assay type: in vivo; settings: rats with focal ischemic injury; first infusion days 1-7, second infusion days 8-14
Source text: as §1
The animals for the stroke study received unilateral devascularization of the sensorimotor cortex. Using Isoflurane anesthesia, the skin was incised and retracted and the overlying fascia were removed from the skull. A skull opening was made at the following coordinates, taking care not to damage the dura: AP +4.0 to −2.0; L 1.5 to 4 (the parasagittal ridge; Kolb et al., 1997). The dura was cut and retracted from the skull opening. A cotton swab soaked in sterile saline was gently rubbed across the exposed pia and the vessels were removed. […]
as §2
Forepaw asymmetry of the animals was determined by filming them from below while in an acrylic cylinder 25 cm in diameter, on an acrylic platform. Preference was determined by separately counting the number of times in 5 minutes that an animal reared and placed the left or right forepaw on the surface of the cylinder in a gesture of postural stabilization. […]
as §3

Row | Substance | glial cells generated by neurospheres, relative to those produced in EGF plus CNTF (neurospheres) [times] | delivery by subcutaneous administration to modulate the number of neural stem cells in the subventricular zone [1] | doublecortin staining / doublecortin positive cells in the brain [2] | forepaw inhibition / motor function in the forelimb inhibition test [3] | recovery of forelimb asymmetry / motor function in the forelimb asymmetry test [4]
1 | EGF: epidermal growth factor; human recombinant EGF for infusion (NSDSECPLSHDGYCLHDGVCMYIEALDKYACNCVVGYIGERCQYRDLKWWELR; UniProt P01133 971-1023, looked up) | 4 | – | – | – | –
2 | IGF-1: IGF-1, a factor said to proliferate neural stem cells | – | effectively delivered | – | – | –
3 | PACAP: pituitary adenylate cyclase activating polypeptide (HSDGIFTDSYSRYRKQMAVKKYLAAVLGKRYKQRVKNK; ends and bridges not checked; UniProt P18509 132-169, looked up) | – | effectively delivered | – | – | –
4 | growth hormone: growth hormone, first infusion days 1-7, then CSF (Group 5) | – | effectively delivered | increased doublecortin positive cells | reversed effect | improvement of motor functions; also recorded: recovered from asymmetrical forelimb usage; also recorded: improved a motor neuron-related function; also recorded: reversed effect
